What is called EC50 is the concentration needed to bring the measured effect to its halfway point. A high value points to a less potent agent.

Counter-ions that a name gives are not always drawn.

In the experiment the target is T1, hNLRP3 (Homo sapiens, UniProt Q96P20).
T1 construct: THP-1 cells were purchased from the American Type Culture Collection; host or cells: THP-1 cells, PMA-differentiated
T1 sequence (Q96P20 whole entry): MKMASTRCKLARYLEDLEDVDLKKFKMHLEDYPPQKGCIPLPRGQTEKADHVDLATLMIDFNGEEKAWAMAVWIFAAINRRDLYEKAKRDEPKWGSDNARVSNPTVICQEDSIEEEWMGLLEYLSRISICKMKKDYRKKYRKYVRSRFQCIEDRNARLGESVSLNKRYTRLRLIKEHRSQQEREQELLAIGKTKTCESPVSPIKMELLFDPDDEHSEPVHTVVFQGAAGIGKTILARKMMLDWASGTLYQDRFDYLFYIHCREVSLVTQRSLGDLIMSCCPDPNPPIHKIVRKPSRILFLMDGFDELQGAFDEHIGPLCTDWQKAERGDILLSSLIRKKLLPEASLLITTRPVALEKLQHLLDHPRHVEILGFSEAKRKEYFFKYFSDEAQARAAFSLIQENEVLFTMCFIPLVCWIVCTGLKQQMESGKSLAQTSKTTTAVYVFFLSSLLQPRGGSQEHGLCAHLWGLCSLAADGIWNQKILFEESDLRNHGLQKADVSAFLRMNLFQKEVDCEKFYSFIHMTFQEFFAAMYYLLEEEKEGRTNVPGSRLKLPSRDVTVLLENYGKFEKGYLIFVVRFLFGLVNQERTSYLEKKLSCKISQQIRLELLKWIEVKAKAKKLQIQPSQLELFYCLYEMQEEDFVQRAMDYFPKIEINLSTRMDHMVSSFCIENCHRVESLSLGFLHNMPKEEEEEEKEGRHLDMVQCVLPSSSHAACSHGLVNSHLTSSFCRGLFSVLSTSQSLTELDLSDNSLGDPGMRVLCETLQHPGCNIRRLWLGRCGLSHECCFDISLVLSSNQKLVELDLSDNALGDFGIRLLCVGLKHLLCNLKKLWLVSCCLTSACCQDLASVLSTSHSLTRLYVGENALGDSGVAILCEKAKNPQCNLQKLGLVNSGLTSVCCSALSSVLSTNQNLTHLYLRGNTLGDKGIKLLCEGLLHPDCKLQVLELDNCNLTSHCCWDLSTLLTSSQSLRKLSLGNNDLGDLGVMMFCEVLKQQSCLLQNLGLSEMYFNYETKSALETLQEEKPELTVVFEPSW
Briefly: Measurement of IL-1β production in PMA-differentiated THP-1 cells (hNLRP3 agonist; ELISA, alternative and hTRF procedures). It counts as cell-based. Put shortly: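 PMA-differentiated THP-1 cells (PMA […] 24 h, 20 μg/ml overnight, or 50 ng/ml overnight, by procedure) replated in RPMI with 2% FBS and exposed to compound (e.g. 100–0.1 μM, 1% DMSO; hTRF format top 10 μM) for 4 h, 2 h, or 2 h respectively. Supernatant IL-1β measured by ELISA, or by hTRF with antibodies diluted 1:40.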
For orientation: In an ELISA, binding on a coated surface is turned into a signal by an enzyme label.
Consider `CCNCc1nc2c(N)nc3cc(-c4cc[nH]n4)ccc3c2[nH]1` [Compound 101, 2-[(Ethylamino)methyl]-7-(1H-pyrazol-3-yl)-1H-imidazo[4,5-c]quinolin-4-amine hydrochloride], for which the EC50 stood at 270 nM.
With `CC(=O)N(C)Cc1nc2c(N)nc3cc(-n4cccn4)ccc3c2[nH]1` [Compound 102, N-((4-Amino-7-(1H-pyrazol-1-yl)-1H-imidazo[4,5-c]quinolin-2-yl)methyl)-N-methylacetamide] the figure was 1600 nM.
With `CN(Cc1nc2c(N)nc3cc(-n4cccn4)ccc3c2[nH]1)S(C)(=O)=O` [Compound 119], the EC50 was 1380 nM.
Then `CN(Cc1nc2c(N)nc3cc(-c4cc[nH]n4)ccc3c2[nH]1)C(=O)C1CC1` [Compound 120], with 1690 nM; and `CCN(Cc1nc2c(N)nc3cc(-c4cc[nH]n4)ccc3c2n1C)C(C)=O` [Compound 121], with 1820 nM; and `CCC(=O)N(C)Cc1nc2c(N)nc3cc(-c4cc[nH]n4)ccc3c2[nH]1` [Compound 122], with 1400 nM.
With `CCN(Cc1nc2c(N)nc3cc(-c4cc[nH]n4)ccc3c2[nH]1)S(C)(=O)=O` [Compound 124] the figure was 2400 nM; with `CCC(=O)N(CC)Cc1nc2c(N)nc3cc(-c4cc[nH]n4)ccc3c2[nH]1` [Compound 125], 2100 nM; with `CCN(Cc1nc2c(N)nc3cc(-c4cc[nH]n4)ccc3c2[nH]1)C(=O)NC` [Compound 128], 2900 nM.
With `CC(=O)N(C)Cc1nc2c(N)nc3cc(-c4cc[nH]n4)ccc3c2[nH]1` [Compound 129] the figure was 3600 nM; with `CCN(Cc1nc2c(N)nc3cc(-n4cccn4)ccc3c2[nH]1)C(N)=O` [Compound 130], 3300 nM.
On to `NCc1nc2c(N)nc3cc(-c4cc[nH]n4)ccc3c2[nH]1` [Compound 131], for which the response was half-maximal at 3500 nM (EC50).
Then `CCN(Cc1nc2c(N)nc3cc(-n4nccn4)ccc3c2[nH]1)C(C)=O` [Compound 132], with 3500 nM; and `CC(c1nc2c(N)nc3cc(-c4cccnc4)ccc3c2[nH]1)N1CCCC1=O` (centres unmarked) [Compound 138], with 6700 nM.
Then `CC(=O)N(Cc1nc2c(N)nc3cc(-c4cc[nH]n4)ccc3c2[nH]1)C(C)C` [Compound 140], with 7300 nM; and `Nc1nc2ccc(Cl)cc2c2[nH]c(CN3CCCC3=O)nc12` [Compound 141], with 9000 nM.
With `CC(C)(C)OC(=O)NCc1nc2c(N)nc3cc(-c4cc[nH]n4)ccc3c2[nH]1` [Compound 142], the response was half-maximal at 9100 nM (EC50).
`Nc1nc2cc(Cl)ccc2c2[nH]c(CN3CCCC3=O)nc12` [Compound 143] came in with an EC50 of 9400 nM.
Then `Nc1nc2cc(-c3ccc(Cl)nc3)ccc2c2[nH]c(CN3CCCC3=O)nc12` [Compound 153], with 12000 nM; and `CCNCc1nc2c(N)nc3cc(OC)ccc3c2[nH]1` [Compound 154], with 16100 nM; and `CCN(Cc1nc2c(N)nc3cc(-c4ncc[nH]4)ccc3c2[nH]1)C(=O)OC(C)(C)C` [Compound 155], with 17400 nM.
Then `Nc1nc2cc(-n3ncc4ccccc43)ccc2c2[nH]c(CN3CCCC3=O)nc12` [Compound 157], with 23400 nM; and `CCN(Cc1nc2c(N)nc3cc(OC)ccc3c2[nH]1)C(C)=O` [Compound 158, N-((4-Amino-7-methoxy-1H-imidazo[4,5-c]quinolin-2-yl)methyl)-N-ethylacetamide], with 24500 nM; and `CCN(Cc1nc2c(N)nc3cc(Cl)c(Cl)cc3c2[nH]1)C(C)=O` [Compound 159], with 25900 nM.
Molecule `CCNCc1nc2c(N)nc3cc(-c4ncc[nH]4)ccc3c2[nH]1` [Compound 162] returned an EC50 of 42000 nM.
Then `CCN(Cc1nc2c(N)nc3cc(-c4cc[nH]n4)ccc3c2[nH]1)CC(C)C` [Compound 453, 2-{[ethyl(2-methylpropyl)amino]methyl}-7-(1H-pyrazol-3-yl)-1H-imidazo[4,5-c]quinolin-4-amine], with 710 nM.
Then `CCN(CC)C(=O)N(CC)Cc1nc2c(N)nc3cc(-c4cc[nH]n4)ccc3c2[nH]1` [Compound 454, 1-{[4-amino-7-(1H-pyrazol-3-yl)-1H-imidazo[4,5-c]quinolin-2-yl]methyl}-1,3,3-triethylurea], with 740 nM; and `CCN(Cc1nc2c(N)nc3cc(-c4cc[nH]n4)ccc3c2[nH]1)C(=O)N1CCOCC1` [Compound 455, N-{[4-amino-7-(1H-pyrazol-3-yl)-1H-imidazo[4,5-c]quinolin-2-yl]methyl}-N-ethylmorpholine-4-carboxamide], with 2000 nM; and `CCN(Cc1nc2c(N)nc3cc(-c4cc[nH]n4)ccc3c2[nH]1)C(=O)NC(C)(C)C` [Compound 456, 1-{[4-amino-7-(1H-pyrazol-3-yl)-1H-imidazo[4,5-c]quinolin-2-yl]methyl}-3-tert-butyl-1-ethylurea], with 2200 nM.
Take `CCNC(=O)N(CC)Cc1nc2c(N)nc3cc(-c4cc[nH]n4)ccc3c2[nH]1` [Compound 457, 1-{[4-amino-7-(1H-pyrazol-3-yl)-1H-imidazo[4,5-c]quinolin-2-yl]methyl}-1,3-diethylurea]: it took 6600 nM to reach a half-maximal effect (EC50).
Take `CCN(Cc1nc2c(N)nc3cc(-c4cc[nH]n4)ccc3c2[nH]1)S(=O)(=O)N(C)C` [Compound 458, 2-{[(dimethylsulfamoyl)(ethyl)amino]methyl}-7-(1H-pyrazol-3-yl)-1H-imidazo[4,5-c]quinolin-4-amine]: the EC50 amounted to 2100 nM.
With `CCN(Cc1nc2c(N)nc3cc(-c4cc[nH]n4)ccc3c2[nH]1)S(=O)(=O)C(C)C` [Compound 459, N-{[4-amino-7-(1H-pyrazol-3-yl)-1H-imidazo[4,5-c]quinolin-2-yl]methyl}-N-ethylpropane-2-sulfonamide] the figure was 6700 nM.
Then `CCCS(=O)(=O)N(CC)Cc1nc2c(N)nc3cc(-c4cc[nH]n4)ccc3c2[nH]1` [Compound 460, N-{[4-amino-7-(1H-pyrazol-3-yl)-1H-imidazo[4,5-c]quinolin-2-yl]methyl}-N-ethylpropane-1-sulfonamide], with 1500 nM; and `CCNCc1nc2c(N)nc3cc(-c4ccn[nH]4)ccc3c2n1CCO` [Compound 462, 2-[4-Amino-2-[(ethylamino)methyl]-7-(1H-pyrazol-5-yl)-1H-imidazo[4,5-c]quinolin-1-yl]ethan-1-ol], with 5500 nM; and `CCn1c(CN2CCCC2=O)nc2c(N)nc3cc(-c4cccs4)ccc3c21` [Compound 463, 1-{[4-amino-1-ethyl-7-(thiophen-2-yl)-1H-imidazo[4,5-c]quinolin-2-yl]methyl}pyrrolidin-2-one], with 220 nM.
With `CCNCc1nc2c(N)nc3cc(-c4ccn[nH]4)ccc3c2n1CC` [Compound 464, 1-ethyl-2-[(ethylamino)methyl]-7-(1H-pyrazol-5-yl)-1H-imidazo[4,5-c]quinolin-4-amine] the figure was 240 nM; with `CCn1c(CN2CCCC2=O)nc2c(N)nc3cc(-n4cccn4)ccc3c21` [Compound 465, 1-{[4-amino-1-ethyl-7-(1H-pyrazol-1-yl)-1H-imidazo[4,5-c]quinolin-2-yl]methyl}pyrrolidin-2-one], 1000 nM.
`CCn1c(CN2CCCC2=O)nc2c(N)nc3cc(-c4ccn[nH]4)ccc3c21` [Compound 466, 1-{[4-amino-1-ethyl-7-(1H-pyrazol-5-yl)-1H-imidazo[4,5-c]quinolin-2-yl]methyl}pyrrolidin-2-one] yielded an EC50 of 1100 nM.
With `CCNCc1nc2c(N)nc3cc(-n4cccn4)ccc3c2n1CC` [Compound 467, 1-ethyl-2-((ethylamino)methyl)-7-(1H-pyrazol-1-yl)-1H-imidazo[4,5-c]quinolin-4-amine] the figure was 1200 nM.
With `CCNCc1nc2c(N)nc3cc(-c4cccs4)ccc3c2n1CC` [Compound 468, 1-ethyl-2-[(ethylamino)methyl]-7-(thiophen-2-yl)-1H-imidazo[4,5-c]quinolin-4-amine] the figure was 2100 nM.
Regarding `Nc1nc2cc(-c3cccs3)ccc2c2c1nc(CN1CCCC1=O)n2CCO` [Compound 469, 1-{[4-amino-1-(2-hydroxyethyl)-7-(thiophen-2-yl)-1H-imidazo[4,5-c]quinolin-2-yl]methyl}pyrrolidin-2-one], the EC50 came to 670 nM.
With `CCC(=O)N(CC)Cc1nc2c(N)nc3cc(-c4cccs4)ccc3c2n1CCO` [Compound 470, N-{[4-amino-1-(2-hydroxyethyl)-7-(thiophen-2-yl)-1H-imidazo[4,5-c]quinolin-2-yl]methyl}-N-ethylpropanamide] the figure was 690 nM.
With `CCNCc1nc2c(N)nc3cc(-c4cccs4)ccc3c2n1CCO` [Compound 471, 2-{4-amino-2-[(ethylamino)methyl]-7-(thiophen-2-yl)-1H-imidazo[4,5-c]quinolin-1-yl}ethan-1-ol] the figure was 1200 nM.
`CCN(Cc1nc2c(N)nc3cc(-c4cccs4)ccc3c2n1CC)C(C)=O` [Compound 472, N-{[4-amino-1-ethyl-7-(thiophen-2-yl)-1H-imidazo[4,5-c]quinolin-2-yl]methyl}-N-ethylacetamide] showed an EC50 of 430 nM.
With `CCC(=O)N(CC)Cc1nc2c(N)nc3cc(-c4ccn[nH]4)ccc3c2n1CC` [Compound 473, N-{[4-amino-1-ethyl-7-(1H-pyrazol-5-yl)-1H-imidazo[4,5-c]quinolin-2-yl]methyl}-N-ethylpropanamide] the figure was 220 nM; with `CCN(Cc1nc2c(N)nc3cc(-c4ccn[nH]4)ccc3c2n1CC)C(C)=O` [Compound 474, N-{[4-amino-1-ethyl-7-(1H-pyrazol-5-yl)-1H-imidazo[4,5-c]quinolin-2-yl]methyl}-N-ethylacetamide], 1200 nM.
Take `CCC(=O)N(CC)Cc1nc2c(N)nc3cc(-c4ccn[nH]4)ccc3c2n1CCO` [Compound 475, N-{[4-amino-1-(2-hydroxyethyl)-7-(1H-pyrazol-5-yl)-1H-imidazo[4,5-c]quinolin-2-yl]methyl}-N-ethylpropanamide]: the EC50 was determined as 23000 nM.
